Columns and labels:
human ER = target: T1, human ER (Homo sapiens, UniProt P03372); test: Competitive binding assay for ER; details: for RBA-E (relative binding affinity for hER): ratio of IC50 of DES to that of test compound, DES set at 100
T1 sequence (P03372 1-595): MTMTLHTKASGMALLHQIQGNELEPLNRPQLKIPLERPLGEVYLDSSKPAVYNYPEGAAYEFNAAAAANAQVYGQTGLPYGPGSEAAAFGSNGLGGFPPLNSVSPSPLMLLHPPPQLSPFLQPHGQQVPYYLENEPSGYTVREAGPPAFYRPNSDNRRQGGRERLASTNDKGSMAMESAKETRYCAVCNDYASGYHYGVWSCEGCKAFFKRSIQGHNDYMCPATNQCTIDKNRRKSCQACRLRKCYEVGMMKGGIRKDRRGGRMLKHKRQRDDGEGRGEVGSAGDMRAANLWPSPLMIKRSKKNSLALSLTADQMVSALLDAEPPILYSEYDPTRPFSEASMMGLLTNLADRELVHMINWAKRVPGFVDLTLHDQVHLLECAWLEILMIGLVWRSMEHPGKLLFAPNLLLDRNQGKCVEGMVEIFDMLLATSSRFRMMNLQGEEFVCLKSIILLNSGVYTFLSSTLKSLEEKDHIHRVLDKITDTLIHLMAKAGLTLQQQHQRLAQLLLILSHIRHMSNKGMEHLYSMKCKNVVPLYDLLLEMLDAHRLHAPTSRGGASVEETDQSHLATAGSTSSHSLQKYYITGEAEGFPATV

[1] = target: T2, human androgen receptor (hAR) (Homo sapiens, UniProt P10275); test: hAR reporter gene assay in CHO cells, agonist mode; details: for hAR-mediated transcriptional activity (androgenicity): 10^-5 M, absence of DHT
T2 sequence (P10275 1-920): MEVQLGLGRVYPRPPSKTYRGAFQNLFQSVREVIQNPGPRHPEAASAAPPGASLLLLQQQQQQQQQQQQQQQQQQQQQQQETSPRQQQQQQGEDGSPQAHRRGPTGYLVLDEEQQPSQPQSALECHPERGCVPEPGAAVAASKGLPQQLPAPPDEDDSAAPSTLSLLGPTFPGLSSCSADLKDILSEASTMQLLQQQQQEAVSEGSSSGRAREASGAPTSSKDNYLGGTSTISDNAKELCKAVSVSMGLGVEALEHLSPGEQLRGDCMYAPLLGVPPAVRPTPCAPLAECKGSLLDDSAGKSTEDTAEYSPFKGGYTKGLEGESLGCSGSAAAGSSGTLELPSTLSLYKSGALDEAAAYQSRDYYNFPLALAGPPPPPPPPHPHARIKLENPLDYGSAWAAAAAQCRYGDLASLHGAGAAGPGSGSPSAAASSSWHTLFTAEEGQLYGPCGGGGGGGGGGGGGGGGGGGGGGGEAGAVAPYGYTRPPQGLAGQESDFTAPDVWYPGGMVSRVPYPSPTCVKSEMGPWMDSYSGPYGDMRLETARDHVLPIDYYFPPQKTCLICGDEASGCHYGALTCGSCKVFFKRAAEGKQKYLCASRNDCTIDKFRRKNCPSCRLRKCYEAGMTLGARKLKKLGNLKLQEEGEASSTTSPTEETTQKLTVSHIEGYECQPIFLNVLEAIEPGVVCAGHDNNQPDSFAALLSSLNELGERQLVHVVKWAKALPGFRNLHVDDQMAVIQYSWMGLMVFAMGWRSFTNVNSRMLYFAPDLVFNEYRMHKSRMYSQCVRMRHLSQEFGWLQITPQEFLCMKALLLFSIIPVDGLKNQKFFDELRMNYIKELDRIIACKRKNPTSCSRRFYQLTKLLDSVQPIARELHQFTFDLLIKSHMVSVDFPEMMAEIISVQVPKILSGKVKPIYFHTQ

human AR = target: T3, human AR (Homo sapiens, UniProt P10275); test: Competitive binding assay for AR; details: ratio of IC50 of mibolerone to that of test compound, mibolerone set at 100
T3 sequence (P10275 1-920): T2 sequence (P10275 1-920)

CHO-K1 cells = test: Renilla luciferase activity as toxicity control in transfected CHO cells; details: conditions of the hAR antagonist assay, data not shown
[2] = target: T4, human estrogen receptor-alpha (hER alpha) (Homo sapiens, UniProt P03372); test: hER alpha reporter gene assay in CHO cells, antagonist mode; details: 10^-5 M, presence of 10-11 M E2, versus vehicle
T4 sequence (P03372 1-595): T1 sequence (P03372 1-595)

[3] = target: T2, human androgen receptor (hAR); test: hAR reporter gene assay in CHO cells, antagonist mode; details: for inhibition of hAR-mediated transcriptional activity by DHT: 10^-5 M, presence of 10^-10 M DHT
[4] = target: T4, human estrogen receptor-alpha (hER alpha); test: hER alpha reporter gene assay in CHO cells, agonist mode; details: for hER-mediated transcriptional activity (estrogenic activity): 10^-5 M, absence of E2; for estrogenic activity of steroids: at the concentrations tested
estrogenic activity = details: 10^-5 M; ref Nishikawa et al. (2000); cited from earlier work

## Nc1ccc(Oc2c(Cl)cc(Cl)cc2Cl)cc1 [CNP-amino, 2,4,6-trichlorophenyl-4-aminophenyl ether]
Human ER
  RBA-E (relative binding affinity for hER): 0.036
[1]
  hAR-mediated transcriptional activity (androgenicity): no androgenicity
Human AR
  RBA-A (relative binding affinity for hAR): 0.33
CHO-K1 cells
  effect on cellular viability (Renilla luciferase activity): did not affect the cellular viability
[2]
  effect on estrogenic activity of E2 (antiestrogenic activity): did not show any significant differences
[3]
  inhibition of hAR-mediated transcriptional activity by DHT: inhibited
[3]; ratio to CNP
  antiandrogen intensity relative to CNP: more than 1/10
[4]
  hER-mediated transcriptional activity (estrogenic activity): potent estrogenic activity
[4]; versus p,p-DDT
  estrogenic activity, fold higher than p,p-DDT: about 4 fold

## Clc1ccc(C(c2ccccc2Cl)C(Cl)(Cl)Cl)cc1 (centres unmarked) [o,p-DDT, 1,1,1-trichloro-2-(p-chlorophenyl)-2-(o-chlorophenyl)ethane, reference compound]
[2]
  effect on estrogenic activity of E2 (antiestrogenic activity): did not show any significant differences
[4]
  hER-mediated transcriptional activity (estrogenic activity): potent estrogenic activity

## O=[N+]([O-])c1ccc(Oc2c(Cl)cc(Cl)cc2Cl)cc1 [CNP, 2,4,6-trichlorophenyl-4-nitrophenyl ether]
Human ER
  effect on the binding of E2 to hER: very low
  RBA-E (relative binding affinity for hER): < 0.0009
[1]
  hAR-mediated transcriptional activity (androgenicity): weakly androgenic
Human AR
  RBA-A (relative binding affinity for hAR): 8.64
CHO-K1 cells
  effect on cellular viability (Renilla luciferase activity): did not affect the cellular viability
[2]
  effect on estrogenic activity of E2 (antiestrogenic activity): did not show any significant differences
[3]
  inhibition of hAR-mediated transcriptional activity by DHT: inhibited
[3]; IC50 ratio versus o,p-DDT
  antiandrogenic potency, fold higher than o,p-DDT: ~10 fold
[3]; IC50 ratio versus p,p-DDE
  antiandrogenic potency, fold higher than p,p-DDE: ~14 fold
[3]; IC50 ratio versus vinclozolin
  antiandrogenic potency, fold higher than vinclozolin: approximately 3.5 fold
Estrogenic activity
  estrogenic activity in yeast two-hybrid assay: negative
[4]
  hER-mediated transcriptional activity (estrogenic activity): potent estrogenic activity

## C[C@]12CC[C@H]3[C@@H](CCC4=CC(=O)CC[C@@]43C)[C@@H]1CC[C@@H]2O [testosterone, reference compound]
[4]
  estrogenic activity of steroids: positive by this assay at high concentrations

## C[C@]12CC[C@@H]3c4ccc(O)cc4CC[C@H]3[C@@H]1CCC2=O [estrone, reference compound]
[1]; at the concentrations tested
  androgenic activity of steroids: only low activity

## CC(=O)[C@H]1CC[C@H]2[C@@H]3CCC4=CC(=O)CC[C@]4(C)[C@H]3CC[C@]12C [progesterone, reference compound]
[4]
  estrogenic activity of steroids: inactive

Reference: publication PMC1241434 (Environmental Health Perspectives, 2003)
